# Data published in PubChem BioAssay (NCI).
#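 Growth conditions: 96-well plates. Treatment: test compound, 48 hours, 5 concentrations. Analysis: linear interpolation between bracketing concentrations; unreached endpoints set to highest concentration. At the GI50, growth is halved. Definition used: TGI = concentration required for complete inhibition of growth.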
# Assays:
# Assay in all cases: NCI tumour cell line growth inhibition, 48 h
# [1] = system: A549 NSCLC
# [2] = system: EKVX NSCLC
# [3] = system: K-562 leukemia
# [4] = system: M14 melanoma
# [5] = system: OVCAR-3 ovarian
# [6] = system: SF-295 CNS
# [7] = system: SK-OV-3 ovarian
# [8] = system: UO-31 renal
# [9] = system: BT-549 breast
# [10] = system: NCI/ADR-RES ovarian
SMILES,TGI [1] [µM],TGI [2] [µM],TGI [3] [µM],TGI [4] [µM],TGI [5] [µM],TGI [6] [µM],TGI [7] [µM],TGI [8] [µM],TGI [9] [µM],TGI [10] [µM],GI50 [1] [µM],GI50 [9] [µM],GI50 [2] [µM],GI50 [4] [µM],GI50 [10] [µM],GI50 [6] [µM],GI50 [7] [µM],GI50 [8] [µM],GI50 [3] [µM],GI50 [5] [µM]
COc1ccc(-c2ccc(CC(=O)O)cc2)cc1OC,> 100,> 100,> 100,> 100,> 100,> 100,> 100,> 100,–,–,–,–,–,–,–,–,–,–,–,–
N#Cc1nc(CCc2nc(C#N)c(N)o2)oc1N,> 10,> 10,> 10,> 10,–,> 10,> 10,> 10,> 10,> 10,–,–,–,–,–,–,–,–,–,–
Cn1c(=O)oc2cc(C3CCC(=O)N3Cc3csc(-c4ccccc4)n3)ccc21 (stereo not drawn),> 100,> 100,> 100,> 100,–,> 100,> 100,> 100,–,–,–,–,–,–,–,–,–,–,–,–
c1cnc2c(c1)-n1cccc1C1(CCCCC1)NN2,> 100,> 100,> 100,> 100,> 100,> 100,–,79.9,–,–,–,–,–,–,–,–,–,–,–,–
Cc1cc2c(c(C(=O)O)c1C)-c1cccc(Cl)c1C2=O,> 100,> 100,> 100,> 100,> 100,> 100,> 100,> 100,–,–,–,–,–,–,–,–,–,–,–,–
CN1CCCC2[C@@H]3CCC4c5nonc5CC[C@]4(C)C3CC[C@@]21C (stereo partly drawn),> 100,> 100,> 100,–,–,> 100,> 100,> 100,–,–,–,–,–,–,–,–,–,–,–,–
O=C1c2ccccc2-c2nc3ccncc3n21,> 100,> 100,> 100,–,> 100,> 100,> 100,> 100,> 100,> 100,–,–,–,–,–,–,–,–,–,–
CCN(CC)C(=S)SSC(C)C,> 100,70.4,–,20.6,–,49,95.7,24.1,30.5,35.7,31.2,13.4,27.4,6.1,16,17.9,30.3,8.99,–,–
COc1cc(C)c2c(c1)CN1CN2Cc2cc(OC)cc(C)c21,> 100,> 100,> 100,> 100,54.2,> 100,> 100,85.5,–,–,–,–,–,–,–,–,–,–,–,–
Cc1ccccc1NC(=O)CSc1nnc(-c2ccc(N=Cc3ccc(Cl)cc3)cc2)o1,> 100,> 100,> 100,> 100,–,> 100,> 100,> 100,–,–,–,–,–,–,–,–,–,–,–,–
COc1ccc(-n2cc(-c3ccc(OC)c(OC)c3)[nH]c2=O)cc1,> 100,> 100,> 100,> 100,> 100,> 100,> 100,> 100,–,> 100,> 100,–,> 100,> 100,> 100,> 100,> 100,> 100,> 100,> 100
